Reference: ChEMBL document CHEMBL1201862, “PubChem BioAssay data set” (2004)
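Five compound concentrations were applied to cells in 96-well plates for 48 hours; endpoints were derived by simple linear interpolation of the resulting dose-response curve. The concentration for 50% growth inhibition is given as GI50.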 Active and inactive are the calls of the source. No stated cut-off is given here; in the data, active = GI50 up to about 1.1 µM and inactive = higher.

Key:
Experiment in all cases: NCI anticancer screen, dose series, 48 h
[1] = system: EKVX
[2] = system: HCT-116
[3] = system: HL-60
[4] = system: HT-29
[5] = system: K562
[6] = system: NCI-H226
[7] = system: NCI-H23
[8] = system: OVCAR-8
[9] = system: RPMI-8226
[10] = system: SF-539
[11] = system: SK-MEL-2
[12] = system: SK-OV-3
[13] = system: SN12C
[14] = system: U-251
[15] = system: UO-31
[16] = system: UACC-257

Measured: GI50

COc1ccc(C(C2=C(C)C(=O)c3ccccc3C2=O)c2ccc(C(C)C)cc(=O)c2O)cc1 (stereo not drawn)
inactive: [1] 2.77 µM | [2] 3.81 µM | [3] 2.61 µM | [4] 6.04 µM | [5] 3.55 µM | [6] 1.7 µM | [7] 3.51 µM | [8] 4.18 µM | [9] 3.74 µM | [10] 2.69 µM | [11] 1.16 µM | [12] 3.49 µM | [13] 2.87 µM | [14] 3.12 µM | [15] 2.12 µM

O=C1C2=C(c3ccccc31)C(c1ccccc1Cl)N1C(=O)CCSC1=N2 (stereo not drawn)
inactive: [1] > 100 µM | [2] > 100 µM | [3] > 100 µM | [4] > 100 µM | [5] > 100 µM | [6] > 100 µM | [7] 76 µM | [8] > 100 µM | [9] 81.5 µM | [10] > 100 µM | [11] > 100 µM | [12] > 100 µM | [13] 89.9 µM | [14] > 100 µM | [16] > 100 µM | [15] 58.1 µM

C=CCSc1ncnc2c1ncn2C1OC(CO)C(O)C1O (stereo not drawn)
inactive: [1] > 100 µM | [2] 20.5 µM | [3] 36 µM | [4] 32.6 µM | [5] 5.35 µM | [6] > 100 µM | [7] 18.2 µM | [8] 3.85 µM | [9] 32.5 µM | [10] 37.5 µM | [11] 58.7 µM | [12] 30.5 µM | [13] 6.31 µM | [14] > 100 µM | [16] > 100 µM | [15] 42.1 µM

Cc1cc2c(=O)cc(-c3ccc(O)cc3)oc2c(C(=O)O)c1C
inactive: [1] > 100 µM | [2] > 100 µM | [3] > 100 µM | [4] > 100 µM | [5] > 100 µM | [6] > 100 µM | [7] > 100 µM | [8] > 100 µM | [9] > 100 µM | [10] > 100 µM | [11] > 100 µM | [12] > 100 µM | [13] > 100 µM | [14] > 100 µM | [16] > 100 µM | [15] > 100 µM

Cc1c(C(=O)/C=C/C=C/c2ccccc2)[n+]([O-])c2ccccc2[n+]1[O-]
inactive: [1] 51.2 µM | [3] 26.1 µM | [4] > 10 µM | [5] 31.8 µM | [6] 64.3 µM | [7] 17.5 µM | [8] 42.8 µM | [9] > 10 µM | [10] 40 µM | [11] 31.7 µM | [12] 40.5 µM | [13] 23.5 µM | [14] 33.7 µM | [16] 28.2 µM | [15] 38.4 µM

[O-][S+](Cc1ccccc1)c1nc2ccccc2nc1-c1cccs1 (stereo not drawn)
inactive: [1] 27.5 µM | [2] 10.4 µM | [3] 3.49 µM | [4] 11.7 µM | [5] 5.38 µM | [6] 4.06 µM | [7] 13.8 µM | [8] 13.7 µM | [9] 17.9 µM | [10] 16.4 µM | [11] 9.66 µM | [12] 29 µM | [13] 14 µM | [14] 18.4 µM | [16] 13.2 µM | [15] 24.8 µM

CC(C)(C)C1=CC(=C(P(=O)(O)O)P(=O)(O)O)C=C(C(C)(C)C)C1=O
inactive: [1] > 50 µM | [2] > 50 µM | [3] > 50 µM | [4] > 50 µM | [5] > 50 µM | [6] > 50 µM | [7] > 50 µM | [8] > 50 µM | [9] > 50 µM | [10] > 50 µM | [11] > 50 µM | [12] > 50 µM | [16] > 50 µM | [15] > 50 µM
